The target in this test is T1, human GPR119 (Homo sapiens, UniProt Q8TDV5).
T1 sequence (Q8TDV5 1-335): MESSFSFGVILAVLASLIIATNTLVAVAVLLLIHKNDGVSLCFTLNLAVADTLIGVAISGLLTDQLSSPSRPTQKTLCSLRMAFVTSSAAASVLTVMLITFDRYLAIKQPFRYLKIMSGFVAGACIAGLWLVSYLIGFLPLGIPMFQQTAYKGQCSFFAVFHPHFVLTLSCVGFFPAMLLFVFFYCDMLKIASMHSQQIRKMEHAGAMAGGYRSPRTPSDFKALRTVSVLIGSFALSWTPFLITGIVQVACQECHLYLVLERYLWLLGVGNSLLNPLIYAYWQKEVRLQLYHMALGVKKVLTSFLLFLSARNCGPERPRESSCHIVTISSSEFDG
As to the kind of experiment: β-lactamase reporter functional assay for GPR119 agonists (hGPR119 HEK293-CRE beta-lactamase cells). To be noted: hGPR119 HEK293-CRE beta-lactamase cells; each line is a separate determination; read-out: Human B-lactamase Functional EC50. Type of test: cell-based. On the set-up: host or cells: hGPR119-HEK293-CRE-beta-lactamase cells. How it is done: The assay for GPR119 agonists utilizes a cell-based (hGPR119HEK293-CRE beta-lactamase) reporter construct where agonist activation of human GPR119 is coupled to beta-lactamase production via a cyclic AMP response element (CRE). GPR119 activity is then measured utilizing a FRET-enabled beta-lactamase substrate, CCF4-AM (Live Blazer FRET-B/G Loading kit, Invitrogen cat #K1027). […] Fluorescence was measured on an EnVision fluorimetric plate reader, excitation 405 nm, emission 460 nm/535 nm. EC50 determinations were made from agonist-response curves analyzed with a curve fitting program using a 4-parameter logistic dose-response equation.

The structures appear in SMILES notation.

For `Cc1c(O[C@@H]2[C@@H]3COC[C@H]2CN(C(=O)OC(C)C)C3)ncnc1N1CCc2cc(S(C)(=O)=O)ccc21` [Example 23, Isopropyl (9-syn)-9-({5-methyl-6-[5-(methylsulfonyl)-2,3-dihydro-1H-indol-1-yl]pyrimidin-4-yl}oxy)-3-oxa-7-azabicyclo[3.3.1]nonane-7-carboxylate], the EC50 was determined as 64.7 nM.

For the origin of these results see patent US20120052130A1, “GPR 119 MODULATORS” (Pfizer Inc., priority 2009, published 2012).
